This note sets out measurements from patent publication US9682953B2, “Amide compounds, compositions and applications thereof” (Advinus Therapeutics Limited, priority 2011, dated 2017).

Structures are written as SMILES. pIC50: −log10 of the molar value. Read-outs that look alike come from different tables or passages of the source.

The target of assay [1] is rat Fatty Acid Amide Hydrolase (FAAH) (Rattus norvegicus (Rat), UniProt P97612). In words: FAAH in vitro fluorescence assay (AAMCA hydrolysis), rat enzyme. The class given is biochemical. The conditions noted are these: for inhibition at 0.1 µM: read-out: rFAAH % inhibition at 100 nM; for inhibition at 0.1 µM / rFAAH % inhibition at 100 nM: 100 nM (tier I). How it is done:
Material and Reagents: All reagents were purchased from Sigma-Aldrich unless specified. […] Chaperone protein groEL-groES in pGRO7 plasmid (Takara Bio Inc, Japan) was co-expressed with Fatty Acid Amide Hydrolase (FAAH) to improve solubility of the protein expressed in E coli. […] Briefly, the bacterial cultures in Luria Broth (2 L) were induced with arabinose (2 mM) and Isopropyl (β-D-1-thiogalactopyranoside, IPTG (1 mM), for 20 h at room temperature. The cultures were centrifuged at 1200×g for 10 min and the cell pellet was resuspended in 100 mL buffer containing of 20 mM NaPi (pH 7.4), 100 mM NaCl, Benzonase (500u), Aprotinin (1 μg/mL) and Leupeptin (1 μg/mL). Cells were lyzed by sonication (Amp 20%, Pulse 15 s×15, on ice) and the cell debris removed by centrifugation at 5000×g for 20 min. The supernatant was enriched via ultracentrifugation at 100,000×g for 1 h and the cell pellet was resuspended in 16 mL buffer containing 20 mM NaPi (pH 7.8), 500 mM NaCl, 1% Triton X-100. The resuspended cell extract was subjected to ultra-centrifugation at 100,000×g for 1 h and the enriched supernatant was used in the in vitro assay. All protein extraction steps were carried out on ice or at 4° C.
The assay was carried out in 200 μL volume in a 96-well black polystyrene plate (Greiner Bio-one, Germany). Each reaction consisted of human Fatty Acid Amide Hydrolase (FAAH) protein and 10 μM AAMCA in assay buffer containing 50 mM HEPES, 1 mM EDTA and 0.1% BSA, pH 7.4. The reaction was incubated with 2 μL of varying concentrations of inhibitor in DMSO (final concentration of DMSO 1%) with shaking for 1 min and monitored for increase in fluorescence in kinetic mode for 50 min. […] Rate of reaction as a function of the concentration of the inhibitor was used to determine the IC50 of the inhibitors. Data was analyzed using GraphPad Prism 5 (GraphPad Software Inc., San Diego, Calif.). The activity of the compounds for rat Fatty Acid Amide Hydrolase (FAAH) was evaluated as described above with rat Fatty Acid Amide Hydrolase (FAAH) protein and 10 μM AAMCA substrate.

The target of assay [2] is human Fatty Acid Amide Hydrolase (FAAH) (Homo sapiens (Human), UniProt O00519). Put plainly: biochemical. To be noted: for inhibition at 0.1 µM: read-out: hFAAH % inhibition at 100 nM, 100 nM (tier I).
Chain of human Fatty Acid Amide Hydrolase (FAAH) (O00519 30-579): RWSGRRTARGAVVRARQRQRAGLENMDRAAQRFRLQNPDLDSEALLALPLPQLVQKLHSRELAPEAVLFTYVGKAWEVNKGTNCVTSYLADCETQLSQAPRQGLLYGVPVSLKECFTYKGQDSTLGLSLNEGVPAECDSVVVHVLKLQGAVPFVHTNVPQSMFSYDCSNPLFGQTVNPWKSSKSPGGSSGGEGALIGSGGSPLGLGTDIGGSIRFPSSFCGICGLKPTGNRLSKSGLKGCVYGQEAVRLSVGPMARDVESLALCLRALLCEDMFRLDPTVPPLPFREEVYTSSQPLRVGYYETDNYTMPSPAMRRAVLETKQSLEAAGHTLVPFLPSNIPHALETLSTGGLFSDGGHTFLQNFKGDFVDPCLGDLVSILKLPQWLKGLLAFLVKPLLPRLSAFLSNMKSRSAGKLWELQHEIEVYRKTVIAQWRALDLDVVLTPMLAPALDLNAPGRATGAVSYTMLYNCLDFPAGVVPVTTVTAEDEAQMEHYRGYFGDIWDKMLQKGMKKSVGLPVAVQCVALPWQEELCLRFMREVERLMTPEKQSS
The mark [3] stands for this setting: human FAAH, read-out: hFAAH IC50.

Chain of rat Fatty Acid Amide Hydrolase (FAAH) (P97612 30-579): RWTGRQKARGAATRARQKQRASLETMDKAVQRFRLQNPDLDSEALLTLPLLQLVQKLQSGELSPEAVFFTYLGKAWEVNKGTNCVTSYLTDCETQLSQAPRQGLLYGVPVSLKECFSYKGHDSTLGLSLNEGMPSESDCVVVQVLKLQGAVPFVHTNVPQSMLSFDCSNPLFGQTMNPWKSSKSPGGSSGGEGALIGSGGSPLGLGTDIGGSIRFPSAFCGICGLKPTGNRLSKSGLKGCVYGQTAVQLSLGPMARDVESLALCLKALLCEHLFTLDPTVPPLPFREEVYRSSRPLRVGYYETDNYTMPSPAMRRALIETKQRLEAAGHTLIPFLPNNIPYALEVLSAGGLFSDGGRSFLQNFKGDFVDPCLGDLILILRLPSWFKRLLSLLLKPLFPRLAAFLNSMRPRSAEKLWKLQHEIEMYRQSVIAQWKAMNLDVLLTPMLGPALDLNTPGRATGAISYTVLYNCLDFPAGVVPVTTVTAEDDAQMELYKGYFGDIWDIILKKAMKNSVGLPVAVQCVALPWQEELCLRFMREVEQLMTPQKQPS

Consider `O=C(NC1CCC(=Cc2cccc(Oc3ccc(C(F)(F)F)cn3)c2)CC1)c1cncnc1` (stereo not shown) [Example 2.A-12, N-[4-[[3-[[5-(Trifluoromethyl)-2-pyridyl]oxy]phenyl]methylene]cyclohexyl]pyrimidine-5-carboxamide], for which the negative-log IC50 (pIC50) (as a rule, the negative decadic logarithm of the IC50, by convention in mol/L) in assay [1] (rat FAAH, read-out: rFAAH IC50) is 7.00; in assay [2] (read-out: hFAAH IC50), 8.52.

On to `O=C(NC1CCC(=Cc2cccc(Oc3ccc(C(F)(F)F)cn3)c2)CC1)c1ccc(F)nc1` (stereo not shown) [Example 2.A-14, 6-Fluoro-N-[4-[[3-[[5-(trifluoromethyl)-2-pyridyl]oxy]phenyl]methylene]cyclohexyl]pyridine-3-carboxamide], for which, in assay [1] (rat FAAH), the inhibition – broadly, the drop in the measured response relative to a control, in per cent – at 0.1 µM amounted to 25%. In addition, the pIC50 in assay [2] (read-out: hFAAH IC50) is 8.00.

For the compound `O=C(NC1CCC(=Cc2cccc(Oc3ccc(C(F)(F)F)cn3)c2)CC1)c1cncc(F)c1` (stereo not shown) [Example 2.A-15, 5-Fluoro-N-[4-[[3-[[5-(trifluoromethyl)-2-pyridyl]oxy]phenyl]methylene]cyclohexyl]pyridine-3-carboxamide], the negative-log IC50 (pIC50) in assay [1] is 6.73; in assay [2] (hFAAH IC50), 8.30.

As to `O=C(NC1CCC(=Cc2cccc(Oc3ccc(C(F)(F)F)cn3)c2)CC1)c1ncccn1` (stereo not shown) [Example 2.A-16, N-[4-[[3-[[5-(Trifluoromethyl)-2-pyridyl]oxy]phenyl]methylene]cyclohexyl]pyrimidine-2-carboxamide], in assay [1] (rat FAAH), the inhibition at 0.1 µM came to 38%. Further, the pIC50 in assay [2] (setting [3]) is 7.82.

For the compound `O=C(NC1CCC(=Cc2cccc(Oc3ccc(C(F)(F)F)cn3)c2)CC1)c1ccnnc1` (stereo not shown) [Example 2.A-17, N-[4-[[3-[[5-(Trifluoromethyl)-2-pyridyl]oxy]phenyl]methylene]cyclohexyl]pyridazine-4-carboxamide], in assay [1] (rat FAAH), the inhibition at 0.1 µM was 14%. Further, the negative-log IC50 (pIC50) in assay [2] (setting [3]) was 8.00.

For the compound `Cn1cc(C(=O)NC2CCC(=Cc3cccc(Oc4ccc(C(F)(F)F)cn4)c3)CC2)cn1` (stereo not shown) [Example 2.A-18, 1-Methyl-N-[4-[[3-[[5-(trifluoromethyl)-2-pyridyl]oxy]phenyl]methylene]cyclohexyl]pyrazole-4-carboxamide], the inhibition at 0.1 µM in assay [1] (rat FAAH) came to 38%; in assay [2] (human FAAH), 45%.

Regarding `O=C(NC1CCC(=Cc2cccc(Oc3ccc(C(F)(F)F)cn3)c2)CC1)c1cn[nH]n1` (stereo not shown) [Example 2.A-19, N-[4-[[3-[[5-(Trifluoromethyl)-2-pyridyl]oxy]phenyl]methylene]cyclohexyl]-2H-triazole-4-carboxamide], the pIC50 in assay [1] (rat FAAH, read-out: rFAAH IC50) was 6.84; in assay [2] (setting [3]), 8.22.

Take `Cc1nnc(C(=O)NC2CCC(=Cc3cccc(Oc4ccc(C(F)(F)F)cn4)c3)CC2)o1` (stereo not shown) [Example 2.A-20, 5-Methyl-N-[4-[[3-[[5-(trifluoromethyl)-2-pyridyl]oxy]phenyl]methylene]cyclohexyl]-1,3,4-oxadiazole-2-carboxamide]: in assay [1] (rat FAAH), the “rFAAH % inhibition at 100 nM” value was “No inhibition at 100 nM”. The pIC50 in assay [2] (setting [3]) was 6.48.

Regarding `O=C(NC1CCC(=Cc2cccc(Oc3ccc(C(F)(F)F)cn3)c2)CC1)c1ccc(Cl)nc1` (stereo not shown) [Example 2.A-22, 6-Chloro-N-[4-[[3-[[5-(trifluoromethyl)-2-pyridyl]oxy]phenyl]methylene]cyclohexyl]pyridine-3-carboxamide], the negative logarithm of the IC50 (pIC50) was 7.09 in assay [1] (rat FAAH, read-out: rFAAH IC50) and 8.30 in assay [2] (setting [3]).

As to `Cc1[nH]ncc1C(=O)NC1CCC(=Cc2cccc(Oc3ccc(C(F)(F)F)cn3)c2)CC1` (stereo not shown) [Example 2.A-23, 5-Methyl-N-[4-[[3-[[5-(trifluoromethyl)-2-pyridyl]oxy]phenyl]methylene]cyclohexyl]-1H-pyrazole-4-carboxamide], the pIC50 in assay [1] (rat FAAH, read-out: rFAAH IC50) was 7.54; in assay [2] (setting [3]), 8.30.

For `CN(C)c1ccc(C(=O)NC2CCC(=Cc3cccc(Oc4ccc(C(F)(F)F)cn4)c3)CC2)cn1` (stereo not shown) [Example 2.A-24, 6-(Dimethylamino)-N-[4-[[3-[[5-(trifluoromethyl)-2-pyridyl]oxy]phenyl]methylene]cyclohexyl]pyridine-3-carboxamide], in assay [1] (rat FAAH), the inhibition at 0.1 µM stood at 31%. In addition, in assay [2] (read-out: hFAAH IC50), the negative logarithm of the IC50 (pIC50) was 8.05.

For the compound `O=C(NC1CCC(=Cc2cccc(Oc3ccc(C(F)(F)F)cn3)c2)CC1)c1cccnc1Cl` (stereo not shown) [Example 2.A-25, 2-Chloro-N-[4-[[3-[[5-(trifluoromethyl)-2-pyridyl]oxy]phenyl]methylene]cyclohexyl]pyridine-3-carboxamide], in assay [1] (rat FAAH), the “rFAAH % inhibition at 100 nM” value is reported as “No inh at 100 nM”. Besides, the negative-log IC50 (pIC50) in assay [2] (read-out: hFAAH IC50) was 7.80.

Take `O=C(NC1CCC(=Cc2cccc(Oc3ccc(C(F)(F)F)cn3)c2)CC1)c1cccnc1F` (stereo not shown) [Example 2.A-26, 2-Fluoro-N-[4-[[3-[[5-(trifluoromethyl)-2-pyridyl]oxy]phenyl]methylene]cyclohexyl]pyridine-3-carboxamide]: the pIC50 in assay [1] (rat FAAH, read-out: rFAAH IC50) is 7.08; in assay [2] (read-out: hFAAH IC50), 8.30.

Regarding `N#Cc1ccc(C(=O)NC2CCC(=Cc3cccc(Oc4ccc(C(F)(F)F)cn4)c3)CC2)cn1` (stereo not shown) [Example 2.A-27, 6-Cyano-N-[4-[[3-[[5-(trifluoromethyl)-2-pyridyl]oxy]phenyl]methylene]cyclohexyl]pyridine-3-carboxamide], the inhibition at 0.1 µM in assay [1] (rat FAAH) stood at 27%. In addition, the negative-log IC50 (pIC50) in assay [2] (setting [3]) is 7.26.

As to `Cc1ncccc1C(=O)NC1CCC(=Cc2cccc(Oc3ccc(C(F)(F)F)cn3)c2)CC1` (stereo not shown) [Example 2.A-28, 2-Methyl-N-[4-[[3-[[5-(trifluoromethyl)-2-pyridyl]oxy]phenyl]methylene]cyclohexyl]pyridine-3-carboxamide], in assay [1] (rat FAAH), the “rFAAH % inhibition at 100 nM” value is listed as “No inhibition at 100 nM”. In addition, the negative logarithm of the IC50 (pIC50) in assay [2] (setting [3]) was 7.51.

Take `O=C(NC1CCC(=Cc2cccc(Oc3ccc(C(F)(F)F)cn3)c2)CC1)c1c[nH]nc1C(F)(F)F` (stereo not shown) [Example 2.A-29, 3-(Trifluoromethyl)-N-[4-[[3-[[5-(trifluoromethyl)-2-pyridyl]oxy]phenyl]methylene]cyclohexyl]-1H-pyrazole-4-carboxamide]: the negative logarithm of the IC50 (pIC50) is 7.62 in assay [1] (rat FAAH, read-out: rFAAH IC50) and 8.52 in assay [2] (read-out: hFAAH IC50).

`Cc1cncc(C(=O)NC2CCC(=Cc3cccc(Oc4ccc(C(F)(F)F)cn4)c3)CC2)c1` (stereo not shown) [Example 2.A-30, 5-Methyl-N-[4-[[3-[[5-(trifluoromethyl)-2-pyridyl]oxy]phenyl]methylene]cyclohexyl]pyridine-3-carboxamide]: the pIC50 in assay [1] (rat FAAH, read-out: rFAAH IC50) was 7.85; in assay [2] (read-out: hFAAH IC50) it was 8.30.

As to `O=C(NC1CCC(=Cc2cccc(Oc3ccc(C(F)(F)F)cn3)c2)CC1)c1cncc(Cl)c1` (stereo not shown) [Example 2.A-32, 5-Chloro-N-[4-[[3-[[5-(trifluoromethyl)-2-pyridyl]oxy]phenyl]methylene]cyclohexyl]pyridine-3-carboxamide], the inhibition at 0.1 µM in assay [1] (rat FAAH) came out at 40%. Also, in assay [2] (setting [3]), the pIC50 was 8.22.

Turning to `O=C(NC1CCC(=Cc2cccc(Oc3ccc(C(F)(F)F)cn3)c2)CC1)c1ccccc1` (stereo not shown) [Example 2.A-34, N-[4-[[3-[[5-(Trifluoromethyl)-2-pyridyl]oxy]phenyl]methylene]cyclohexyl]benzamide], the inhibition at 1 µM in assay [1] (read-out: rFAAH % inhibition at 1 μM, rat FAAH, 1 μM) was determined as 50%. Also, in assay [2] (setting [3]), the pIC50 was 7.74.

For the compound `Cc1n[nH]c(C)c1C(=O)NC1CCC(=Cc2cccc(Oc3ccc(C(F)(F)F)cn3)c2)CC1` (stereo not shown) [Example 2.A-35, 3,5-Dimethyl-N-[4-[[3-[[5-(trifluoromethyl)-2-pyridyl]oxy]phenyl]methylene]cyclohexyl]-1H-pyrazole-4-carboxamide], in assay [1] (rat FAAH), the inhibition at 0.1 µM stood at 38%. For the same compound, in assay [2] (read-out: hFAAH IC50), the pIC50 was 7.54.

Consider `Cc1ccc(C(=O)NC2CCC(=Cc3cccc(Oc4ccc(C(F)(F)F)cn4)c3)CC2)c(C)n1` (stereo not shown) [Example 2.A-37, 2,6-Dimethyl-N-[4-[[3-[[5-(trifluoromethyl)-2-pyridyl]oxy]phenyl]methylene]cyclohexyl]pyridine-3-carboxamide], for which the “rFAAH % inhibition at 100 nM” value in assay [1] (rat FAAH) is “No inhibition at 100 nM”. For the same compound, in assay [2] (setting [3]), the pIC50 is 7.24.

In the case of `Cc1n[nH]c(C(C)C)c1C(=O)NC1CCC(=Cc2cccc(Oc3ccc(C(F)(F)F)cn3)c2)CC1` (stereo not shown) [Example 2.A-38, 5-Isopropyl-3-methyl-N-[4-[[3-[[5-(trifluoromethyl)-2-pyridyl]oxy]phenyl]methylene]cyclohexyl]-1H-pyrazole-4-carboxamide], the inhibition at 0.1 µM was found to be 54% in assay [1] (rat FAAH) and 20% in assay [2] (human FAAH).

`CC(C)c1[nH]ncc1C(=O)NC1CCC(=Cc2cccc(Oc3ccc(C(F)(F)F)cn3)c2)CC1` (stereo not shown) [Example 2.A-39, 5-Isopropyl-N-[4-[[3-[[5-(trifluoromethyl)-2-pyridyl]oxy]phenyl]methylene]cyclohexyl]-1H-pyrazole-4-carboxamide]: the pIC50 in assay [1] (rat FAAH, read-out: rFAAH IC50) was 7.52; in assay [2] (setting [3]), 7.20.
